# Source: US7919300B2, “Glucose isomerase mutants” (priority 2004, dated 2011)
# Where two headings read alike, the source gives them in different places.
# Biological target: Thermoanaerobacterium saccharolyticum glucose isomerase (ATCC 49915), wild-type, SEQ ID NO.: 2 (Thermoanaerobacterium saccharolyticum, UniProt P30435)
# Details: pH 6.5, 20 mM sodium phosphate, 250 μM CoCl2, 5 mM MgCl2, 10 minutes
# Method: The isolation and purification of wild-type glucose isomerase were based on Lee et al., (Journal of General Microbiology, 139:1227-1234, 1993) with modifications. pGEMT-TS transformed E. coli HB101 cells were incubated on 1% MacConkey agar plate containing 1% xylose and 50 mg/L ampicillin at 37° C. for 36 hours. A single colony from the plate was inoculated and cultivated in 5 mL LB supplemented with 50 mg/L ampicillin for 16 hours. The bacterial cells were pelleted and resuspended in 1 ml 20 mM phosphate buffer (pH 6.5), and CoCl2 and MgCl2 were added to final concentration of 250 μM and 5 mM, respectively. The cells were disrupted by using ultrasonication and centrifuged at 17,800 g for 15 minutes at 10° C. to collect the supernatant as crude glucose isomerase. The crude enzyme was heated at 80° C. for 10 minutes and centrifuged again at 17,800 g for 15 minutes at 10° C. to remove the precipitation.
# Ninety μl of the stock solution was mixed with 10 μl of the glucose isomerase prepared as described in Example 9, incubated at 80° C. for 10 minutes and quenched on ice immediately. The fructose formed was measured by the cysteine-carbazole method (Dische et al., J. Biol. Chem, 192:583-587, 1951; and Nakamura, Agr. Biol. Chem. 32:701-706, 1968). The protein concentration was determined using Coomassie® Plus Protein Assay Reagent Kit (Pierce, USA) and SDD-PAGE, with BSA as the standard.
# Chain of Thermoanaerobacterium saccharolyticum glucose isomerase (ATCC 49915), wild-type, SEQ ID NO.: 2 (P30435 whole entry R81A): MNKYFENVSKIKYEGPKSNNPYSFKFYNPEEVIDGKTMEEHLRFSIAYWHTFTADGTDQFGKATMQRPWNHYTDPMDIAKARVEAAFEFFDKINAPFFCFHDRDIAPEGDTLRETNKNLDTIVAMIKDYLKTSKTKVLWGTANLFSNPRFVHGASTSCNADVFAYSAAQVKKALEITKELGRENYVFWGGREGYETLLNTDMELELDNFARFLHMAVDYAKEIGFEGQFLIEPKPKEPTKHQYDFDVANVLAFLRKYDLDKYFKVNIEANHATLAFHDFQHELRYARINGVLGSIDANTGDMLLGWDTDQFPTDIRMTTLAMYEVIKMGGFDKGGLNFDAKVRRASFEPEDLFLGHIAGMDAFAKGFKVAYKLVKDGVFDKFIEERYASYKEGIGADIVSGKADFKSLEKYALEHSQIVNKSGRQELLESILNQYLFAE
compound,measurement,setting,value
OC[C@H]1OC(O)[C@H](O)[C@@H](O)[C@@H]1O (stereo partly drawn) [D-glucose],Kcat,65° C.,5.742 s⁻¹
same,Kcat/Km,65° C.,41.7 M⁻¹ s⁻¹
same,Kcat,80° C.,14.68 s⁻¹
same,Kcat/Km,80° C.,98.3 M⁻¹ s⁻¹
